Measurements as given in patent publication US20090317457A1, “ANTI-INFLAMMATORY AND WOUND HEALING EFFECTS OF LYMPHOID THYMOSIN B-4” (Yale University, priority 2002, published 2009).

Key:
[1] = system: λ-carrageenan induced neutrophil mediated inflammation of the footpad; settings: oxidised form; reference 8; cited from earlier work
[2] = system: λ-carrageenan induced neutrophil mediated inflammation of the footpad; assay: λ-carrageenan-induced footpad inflammation (footpad swelling); assay type: in vivo, BALB/c mice; settings: for Footpad Thickness (+/− SE): Un-Methionated Thymosin Experiment (A), oxidised peptide
Method: Experimental groups of 8-10 female BALB/c mice, 8-10 weeks of age, were housed in temperature controlled rooms and given food and water ad libitum. Observations and measurements were made by an investigator blinded to the experimental group. λ-Carrageenan injection. After measuring the baseline thickness of the hind footpads with a spring-loaded engineer's micrometer, mice were injected subcutaneously in both hind paws with 340 μg of λ-carrageenan in 40 μl. 6 h., 24 h., and 48 h. after the injection of λ-carrageenan, footpads were re-measured and swelling calculated by subtracting the baseline from the experimental measurements. For each mouse, increases in right and left footpad thickness were averaged. Thymosin peptides were injected as previously described [reference 8]: (i) intraperitoneally with 100 μl of 3.50×10^−5 M peptide solution, 30 minutes before footpad injection; (ii) intradermally into the footpad with 40 μl of 8.75×10^−5 M peptide solution and λ-carrageenan at time 0, and (iii) intraperitoneally with 100 μl of 3.50×10^−5 M peptide solution, 6 h. after footpad injection. For each group, the mean increase in footpad thickness was calculated, and compared to other groups using a one-tailed Student's t-test. The experiment was repeated four times. Statistics. Groups were compared for differences in the meaning using a one-tailed Student's t test; p<0.05 was considered statistically significant.

[3] = system: DNFB-induced allergic contact dermatitis of ear skin; assay: DNFB allergic contact dermatitis (ACD) ear swelling assay; assay type: in vivo, FVB mice; settings: for DNFB Ear Thickness (+/− SE): Un-Methionated Thymosin Experiment; for ear thickness: unit not given
Method: Experimental groups of 8-10 female FVB mice, 8-10 weeks of age, were housed in temperature controlled rooms and given food and water ad libitum. Observations and measurements were made by an investigator blinded to the experimental group. Mice were sensitized on day 0 by epicutaneous application to razor-shaved abdominal skin of 25 μl of 0.5% DNFB in a mixture of acetone:olive oil (4:1). Before the challenge with DNFB, mice were injected (i) intraperitoneally with 100 μl of 3.50×10^−5 M thymosin peptide solution (30 minutes before DNFB) and (ii) intradermally with 40 μl of 8.75×10^−5 M peptide solution in both ears (1 min prior to DNFB challenge). On day 5, after measuring baseline ear thickness with an engineer's micrometer, mice were challenged by applying 10 μl of 0.2% DNFB in acetone:olive oil to each side of each ear. Ears were re-measured 6 h., 24 h., and 48 h. after challenge, and data expressed as the response above baseline (i.e., ear thickness 24 h. after challenge minus ear thickness immediately prior to challenge)±1 standard error of the mean (S.E.). For each mouse, increases in right and left ear thickness were averaged. The experiment was repeated twice. Statistics. Groups were compared for differences in the meaning using a one-tailed Student's t test; p<0.05 was considered statistically significant.

neutrophil chemotaxis = settings: chemically-synthesized peptide; reference 8; cited from earlier work
[4] = system: human umbilical vein endothelial cells (HUVEC); settings: references 8, 9; cited from earlier work

N-SDKPDMAEIEKFDKSKLKKTETQEKNPL-PSKETIEQEKQAGES-C (SEQ ID NO:1) [UTβ4]
inhibition of λ-carrageenan-induced edema/inflammation in the mouse footpad [1]: active
suppression of footpad inflammation relative to PBS ([2]; 6 h): 12%
suppression of footpad inflammation relative to PBS ([2]; 24 h): 30%
footpad thickness ([2]; 24 h, unit not given): 0.37±0.03
suppression of footpad inflammation relative to PBS ([2]; 48 h): 31%
Footpad Thickness (+/− SE) ([2]; forty-eight hours after λ-carrageenan): 0.41 ± 0.04 mm
Footpad Thickness (+/− SE) ([2]; six hours after λ-carrageenan, increase over baseline): 0.53 ± 0.03 mm
Footpad Thickness (+/− SE) ([2]; twenty-four hours after λ-carrageenan): 0.37 ± 0.03 mm
suppression of ACD ear swelling response relative to PBS ([3]; 6 h): −4%
ear swelling response compared to mice receiving PBS or UTβ4 (FIG. 4A) ([3]; 6 h, 24 h and 72 h after challenge): no significant suppression
suppression of ACD ear swelling response relative to PBS ([3]; 24 h): 5%
suppression of ACD ear swelling response relative to PBS ([3]; 72 h): 2%
DNFB Ear Thickness (+/− SE) ([3]; forty-eight hours after challenge): 19.90 ± 1.02 .01 mm
DNFB Ear Thickness (+/− SE) ([3]; six hours after challenge): 9.85 ± 0.66 .01 mm
DNFB Ear Thickness (+/− SE) ([3]; twenty-four hours after challenge): 22.68 ± 1.33 .01 mm
ear thickness ([3]; seventy-two hours): 19.90±1.02
ear thickness ([3]; six hours): 9.85±0.66
ear thickness ([3]; twenty-four hours): 22.68±1.33
neutrophil chemotaxis in vitro (neutrophil chemotaxis): inhibit neutrophil chemotaxis in vitro
closure of scratch wounds in endothelial cell and keratinocyte monolayers in vitro [4]: promote the closure
